Laboratory results taken from patent US12209087B2, “AKT1 modulators” (Alterome Therapeutics, Inc., priority 2022, dated 2025).
pIC50: −log10 of the molar value.

Each molecule was assayed against T1, full length AKT E17K (Homo sapiens, UniProt P31749, E17K) (assay: NanoBRET Target Engagement (TE) Assay). Conditions: competitive displacement of tracer in cells, read-out: AKT1 E17K IC50.
T1 construct: host or cells: HEK-293 (ATCC CRL-1573)
Format: cell-based
Summary of the method: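 Compound and tracer incubated 2 h before luminescence at donor 450 nm and acceptor 600 nm, with extracellular signal inhibited. EC50 by sigmoidal variable-slope regression.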

T1 sequence (P31749 whole entry E17K): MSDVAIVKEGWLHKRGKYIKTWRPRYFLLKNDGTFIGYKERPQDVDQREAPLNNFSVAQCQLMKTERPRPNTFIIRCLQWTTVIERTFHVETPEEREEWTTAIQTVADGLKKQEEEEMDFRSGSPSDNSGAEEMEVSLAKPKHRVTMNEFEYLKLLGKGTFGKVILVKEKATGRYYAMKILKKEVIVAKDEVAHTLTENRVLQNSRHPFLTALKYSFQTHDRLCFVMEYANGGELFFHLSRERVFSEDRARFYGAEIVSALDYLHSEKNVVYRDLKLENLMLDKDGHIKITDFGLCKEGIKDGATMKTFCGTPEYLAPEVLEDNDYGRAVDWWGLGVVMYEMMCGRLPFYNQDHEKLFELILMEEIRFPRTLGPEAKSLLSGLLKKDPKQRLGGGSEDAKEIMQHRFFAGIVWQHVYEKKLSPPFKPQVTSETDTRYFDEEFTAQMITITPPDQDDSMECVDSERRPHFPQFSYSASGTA

Q: `N#Cc1nccc(NC2CCN(Cc3ccc(-n4c(-c5cccnc5N)nc5ccc([C@H]6CCOC6)nc54)cc3)CC2)n1` (single isomer, unassigned) [Example 507] was tested. Which pIC50 did it give?
A: > 7.82

Q: How did the pIC50 turn out when `N#Cc1nccc(NC2CCN(Cc3ccc(-n4c(-c5cccnc5N)nc5ccc(-c6ccc(=O)n(CF)c6)nc54)cc3)CC2)n1` [Example 607, 4-((1-(4-(2-(2-Aminopyridin-3-yl)-5-(1-(fluoromethyl)-6-oxo-1,6-dihydropyridin-3-yl)-3H-imidazo[4,5-b]pyridin-3-yl)benzyl)piperidin-4-yl)amino)pyrimidine-2-carbonitrile] was run?
A: 7.22 to 7.82

Q: With `N#Cc1ccc2c(c1)nc(-c1cccnc1N)n2-c1ccc(CN2CCC(Nc3ccnc(C#N)n3)CC2)cc1` [Example 501, 2-(2-Aminopyridin-3-yl)-1-(4-((4-((2-cyanopyrimidin-4-yl)amino)piperidin-1-yl)methyl)phenyl)-1H-benzo[d]imidazole-5-carbonitrile] as the molecule, how does the pIC50 read?
A: 7.22 to 7.82

Q: How did the pIC50 turn out when `Cc1cnc(-c2ccc3nc(-c4cccnc4N)n(-c4ccc(CN5CCC(Nc6ccnc(C#N)n6)CC5)cc4)c3n2)cn1` [Example 582, 4-((1-(4-(2-(2-Aminopyridin-3-yl)-5-(5-methylpyrazin-2-yl)-3H-imidazo[4,5-b]pyridin-3-yl)benzyl)piperidin-4-yl)amino)pyrimidine-2-carbonitrile] was run?
A: > 7.82

Q: With `N#Cc1nccc(NC2CCN(Cc3ccc(-n4c(-c5cccnc5N)nc5ccc(F)nc54)cc3)CC2)n1` [Example 401, 4-((1-(4-(2-(2-Aminopyridin-3-yl)-5-fluoro-3H-imidazo[4,5-b]pyridin-3-yl)benzyl)piperidin-4-yl)amino)pyrimidine-2-carbonitrile] as the molecule, how does the pIC50 read?
A: 7.22 to 7.82

Q: With `CC(C)n1cc(-c2ccc3nc(-c4cccnc4N)n(-c4ccc(CN5CCC(Nc6ccnc(C#N)n6)CC5)cc4)c3n2)nn1` [Example 611, 4-((1-(4-(2-(2-Aminopyridin-3-yl)-5-(1-isopropyl-1H-1,2,3-triazol-4-yl)-3H-imidazo[4,5-b]pyridin-3-yl)benzyl)piperidin-4-yl)amino)pyrimidine-2-carbonitrile] as the molecule, how does the pIC50 read?
A: > 7.82

Q: How did the pIC50 turn out when `N#Cc1nccc(NC2CCN(Cc3ccc(-n4c(-c5cccnc5N)nc5ccc(N6CCCNC(=O)C6)nc54)cc3)CC2)n1` [Example 318, 4-((1-(4-(2-(2-Aminopyridin-3-yl)-5-(3-oxo-1,4-diazepan-1-yl)-3H-imidazo[4,5-b]pyridin-3-yl)benzyl)piperidin-4-yl)amino)pyrimidine-2-carbonitrile] was run?
A: 7.22 to 7.82

Q: `N#Cc1nccc(NC2CCN(Cc3ccc(-n4c(-c5cccnc5N)nc5ccc(N6CCNC(=O)CC6)nc54)cc3)CC2)n1` [Example 323, 4-((1-(4-(2-(2-Aminopyridin-3-yl)-5-(5-oxo-1,4-diazepan-1-yl)-3H-imidazo[4,5-b]pyridin-3-yl)benzyl)piperidin-4-yl)amino)pyrimidine-2-carbonitrile] was tested. Which pIC50 did it give?
A: 5.00 to 6.22

Q: With `CCn1cc(-c2ccc3nc(-c4cccnc4N)n(-c4ccc(CN5CCC(Nc6ccnc(C#N)n6)CC5)cc4)c3n2)cn1` [Example 466, 4-((1-(4-(2-(2-Aminopyridin-3-yl)-5-(1-ethyl-1H-pyrazol-4-yl)-3H-imidazo[4,5-b]pyridin-3-yl)benzyl)piperidin-4-yl)amino)pyrimidine-2-carbonitrile] as the molecule, how does the pIC50 read?
A: > 7.82

Q: With `N#Cc1nccc(NC2CCN(Cc3ccc(-n4c(-c5cccnc5N)nc5ccc(OC(F)(F)F)nc54)cc3)CC2)n1` [Example 423, 4-((1-(4-(2-(2-Aminopyridin-3-yl)-5-(trifluoromethoxy)-3H-imidazo[4,5-b]pyridin-3-yl)benzyl)piperidin-4-yl)amino)pyrimidine-2-carbonitrile] as the molecule, how does the pIC50 read?
A: 6.22 to 7.22

Q: `[2H]C([2H])([2H])Oc1ccc(-c2ccc3nc(-c4cccnc4N)n(-c4ccc(CN5CCC(Nc6ccnc(C#N)n6)CC5)cc4)c3n2)nc1` [Example 578, 4-((1-(4-(2-(2-Aminopyridin-3-yl)-5-(5-(methoxy-d)pyridin-2-yl)-3H-imidazo[4,5-b]pyridin-3-yl)benzyl)piperidin-4-yl)amino)pyrimidine-2-carbonitrile] was tested. Which pIC50 did it give?
A: > 7.82

Same assay, conditions: competitive tracer displacement in living cells, read-out: AKT1 E17K IC50

Q: `N#Cc1nccc(NC2CCN(Cc3ccc(-n4c(-c5cccnc5N)nc5ccc(N6CCOCC6)nc54)cc3)CC2)n1` [Example 239, 4-((1-(4-(2-(2-Aminopyridin-3-yl)-5-morpholino-3H-imidazo[4,5-b]pyridin-3-yl)benzyl)piperidin-4-yl)amino)pyrimidine-2-carbonitrile] was tested. Which pIC50 did it give?
A: > 7.82

Q: With `N#Cc1ccnc(OC2CCN(Cc3ccc(-n4c(-c5cccnc5N)nc5cccnc54)cc3)CC2)c1` [Example 5, 2-((1-(4-(2-(2-aminopyridin-3-yl)-3H-imidazo[4,5-b]pyridin-3-yl)benzyl)piperidin-4-yl)oxy)isonicotinonitrile] as the molecule, how does the pIC50 read?
A: 5.00 to 6.22

Q: How did the pIC50 turn out when `N#Cc1cc(C(=O)N2CCN(Cc3ccc(-n4c(-c5cccnc5N)nc5ccc(-c6ccccc6)nc54)cc3)CC2)ncn1` [Example 116, 6-(4-(4-(2-(2-Aminopyridin-3-yl)-5-phenyl-3H-imidazo[4,5-b]pyridin-3-yl)benzyl)piperazine-1-carbonyl)pyrimidine-4-carbonitrile] was run?
A: > 7.82

Q: `N#Cc1ccnc(NC2CCN(Cc3ccc(-n4c(-c5cccnc5N)nc5cccnc54)cc3)CC2)c1` [Example 75, 2-((1-(4-(2-(2-Aminopyridin-3-yl)-3H-imidazo[4,5-b]pyridin-3-yl)benzyl)piperidin-4-yl)amino)isonicotinonitrile] was tested. Which pIC50 did it give?
A: 5.00 to 6.22

Q: `N#Cc1cncc(N2CCN(Cc3ccc(-n4c(-c5cccnc5N)nc5cccnc54)cc3)CC2)n1` [Example 19, 6-(4-(4-(2-(2-Aminopyridin-3-yl)-3H-imidazo[4,5-b]pyridin-3-yl)benzyl)piperazin-1-yl)pyrazine-2-carbonitrile] was tested. Which pIC50 did it give?
A: 5.00 to 6.22

Q: `C[C@H]1CN(Cc2ccc(-n3c(-c4cccnc4N)nc4ccc(-c5ccccc5)nc43)cc2)CCN1c1ccnc(C#N)n1` [Example 206, (S)-4-(4-(4-(2-(2-Aminopyridin-3-yl)-5-phenyl-3H-imidazo[4,5-b]pyridin-3-yl)benzyl)-2-methylpiperazin-1-yl)pyrimidine-2-carbonitrile] was tested. Which pIC50 did it give?
A: 7.22 to 7.82

Q: How did the pIC50 turn out when `C[C@@H]1CN(Cc2ccc(-n3c(-c4cccnc4N)nc4ccc(-c5ccccc5)nc43)cc2)CCN1c1nccc(C#N)n1` [Example 226, (R)-2-(4-(4-(2-(2-Aminopyridin-3-yl)-5-phenyl-3H-imidazo[4,5-b]pyridin-3-yl)benzyl)-2-methylpiperazin-1-yl)pyrimidine-4-carbonitrile] was run?
A: 6.22 to 7.22

Q: With `N#Cc1cccc(NCc2ccc(-n3c(-c4cccnc4N)nc4cccnc43)cc2)n1` [Example 130, 6-((4-(2-(2-Aminopyridin-3-yl)-3H-imidazo[4,5-b]pyridin-3-yl)benzyl)amino)picolinonitrile] as the molecule, how does the pIC50 read?
A: 5.00 to 6.22

Q: `N#Cc1cccc(OC2CCN(Cc3ccc(-n4c(-c5cccnc5N)nc5cc(-c6ccccc6)cnc54)cc3)CC2)n1` [Example 10, 6-((1-(4-(2-(2-Aminopyridin-3-yl)-6-phenyl-3H-imidazo[4,5-b]pyridin-3-yl)benzyl)piperidin-4-yl)oxy)picolinonitrile] was tested. Which pIC50 did it give?
A: 5.00 to 6.22

Q: How did the pIC50 turn out when `N#Cc1cc(N2C3CCC2CN(Cc2ccc(-n4c(-c5cccnc5N)nc5ccc(-c6ccccc6)nc54)cc2)C3)ncn1` [Example 205, 6-(3-(4-(2-(2-Aminopyridin-3-yl)-5-phenyl-3H-imidazo[4,5-b]pyridin-3-yl)benzyl)-3,8-diazabicyclo[3.2.1]octan-8-yl)pyrimidine-4-carbonitrile] was run?
A: 6.22 to 7.22
